These results are taken from EP0375449B1, “Benzopyran-type compounds” (BEECHAM GROUP PLC, priority 1988, dated 1990).

Assay [1] has as its system Spontaneously hypertensive rats. Kind of assay: Antihypertensive activity: systolic blood pressure by tail cuff method. The assay is classed as in vivo. The settings on record: maximum at 1-4 hours post dose. The protocol:
Systolic blood pressures were recorded by a modification of the tail cuff method described by I.M. Claxton, M.G. Palfreyman, R.H. Poyser, R.L. Whiting, European Journal of Pharmacology, 37, 179 (1976). A W+W BP recorder, model 8005 was used to display pulses. Prior to all measurements rats were placed in a heated environment (33.5 ± 0.5 °C) before transfer to a restraining cage. Each determination of blood pressure was the mean of at least 5 readings. Spontaneously hypertensive rats (ages 12-18 weeks) with systolic blood pressures >180 mmHg were considered hypertensive.

The test system of the next assay is trachea. Kind of assay: Bronchodilator activity: relaxation of isolated tracheal spirals. The assay is classed as tissue-based, guinea pigs. The settings on record: Cavia porcellus; fall in resting tension as percentage of total relaxation evoked by 10⁻³M isoprenaline; guinea pig tracheal spirals, Krebs solution 37°C; read-out: IC₅₀. The protocol:
Male guinea pigs (300-600g) were stunned by a blow to the head and bled from the carotid artery. The trachea was exposed, dissected free of connective tissue, and transferred to oxygenated Krebs solution at 37 °C. Next, spirals (2 per trachea) were prepared by cutting the whole trachea spirally along its longitudinal axis and then dividing this spiral lengthwise. Each preparation was mounted, using silk thread, in a 10ml organ bath filled with krebs solution at 37 °C and bubbled with 5% CO₂ with O₂. The resting tension of the preparations was set at 2g and changes in muscle tension were monitored isometrically by means of a UFI (2oz) force and displacement transducer (Ormed Ltd) connected to a Linseis pen recorder. All preparations were allowed to equilibrate for 60 minutes. During this equilibration period the preparations were washed by upward displacement at 15 minute intervals and, if necessary, the resting tension was readjusted to 2g using a mechanical micromanipulator system.
Once a steady resting tension had been obtained, the preparations were dosed simultaneously with the test compound (10⁻⁸-2x10⁻⁵M), and finally a maximum relaxation achieved by addition of 10⁻³M isoprenaline. The fall in tension evoked by the test compound was expressed as a percentage of the total relaxation evoked in the presence of 10⁻³ isoprenaline. […]

As for `CC(C)NC(=O)N[C@H]1[C@H](O)c2cc(C#N)ccc2OC1(C)C` (relative stereo) [Example E14, trans-6-Cyano-2,2-dimethyl-3,4-dihydro-3-(isopropylureido)-2H-1-benzopyran-4-ol], in assay [1] (Dose 0.3 mg/kg), the “% b.p. fall” value amounted to 22%. For `CC(C)(C)OC(=O)N[C@H]1[C@H](O)c2cc(C#N)ccc2OC1(C)C` (relative stereo) [Example E1, trans-6-Cyano-2,2-dimethyl-3,4-dihydro-3-(t-butoxycarbonyl)amino-2H-1-benzopyran-4-ol], the “% b.p. fall” value in assay [1] (Dose 3.0 mg/kg) was found to be 30%.

Regarding `CC1(C)Oc2ccc(C#N)cc2[C@@H](O)[C@@H]1NC(=O)c1ccc(F)cc1` (relative stereo) [Example E3, trans-6-Cyano-2,2-dimethyl-3,4-dihydro-3-(4-fluorobenzoylamino)-2H-1-benzopyran-4-ol], the “% b.p. fall” value in assay [1] (Dose 3.0 mg/kg) is 42%. As for `CC(C)(C)NC(=O)N[C@H]1[C@H](O)c2cc(C#N)ccc2OC1(C)C` (relative stereo) [Example E5, trans-6-Cyano-2,2-dimethyl-3,4-dihydro-3-(t-butylureido)-2H-1-benzopyran-4-ol], in the assay with trachea, the IC50 stood at 2800 nM. Also, the “% b.p. fall” value in assay [1] (Dose 0.3 mg/kg) is “≧40%”. For the compound `CC(C)(C)C(=O)N[C@H]1[C@H](O)c2cc(C#N)ccc2OC1(C)C` (relative stereo) [Example E21, trans-6-Cyano-2,2-dimethyl-3,4-dihydro-3-trimethylacetylamino-2H-1-benzopyran-4-ol], the “% b.p. fall” value in assay [1] (Dose 1.0 mg/kg) worked out at 36%.
